Data: US9790536B2, “Methods for assaying alpha-L-iduronidase enzymatic activity” (University of Washington, priority 2007, dated 2017)

Molecular target: T1, α-L-iduronidase (IdA; EC 3.2.1.76) (Homo sapiens, UniProt P35475)
T1 construct: Incubation with IdA present in DBS leads to enzymatic release of the iduronyl group; from tissue; host or cells: dried blood spot (DBS) extract, 3-mm punch
T1 sequence (P35475 28-653): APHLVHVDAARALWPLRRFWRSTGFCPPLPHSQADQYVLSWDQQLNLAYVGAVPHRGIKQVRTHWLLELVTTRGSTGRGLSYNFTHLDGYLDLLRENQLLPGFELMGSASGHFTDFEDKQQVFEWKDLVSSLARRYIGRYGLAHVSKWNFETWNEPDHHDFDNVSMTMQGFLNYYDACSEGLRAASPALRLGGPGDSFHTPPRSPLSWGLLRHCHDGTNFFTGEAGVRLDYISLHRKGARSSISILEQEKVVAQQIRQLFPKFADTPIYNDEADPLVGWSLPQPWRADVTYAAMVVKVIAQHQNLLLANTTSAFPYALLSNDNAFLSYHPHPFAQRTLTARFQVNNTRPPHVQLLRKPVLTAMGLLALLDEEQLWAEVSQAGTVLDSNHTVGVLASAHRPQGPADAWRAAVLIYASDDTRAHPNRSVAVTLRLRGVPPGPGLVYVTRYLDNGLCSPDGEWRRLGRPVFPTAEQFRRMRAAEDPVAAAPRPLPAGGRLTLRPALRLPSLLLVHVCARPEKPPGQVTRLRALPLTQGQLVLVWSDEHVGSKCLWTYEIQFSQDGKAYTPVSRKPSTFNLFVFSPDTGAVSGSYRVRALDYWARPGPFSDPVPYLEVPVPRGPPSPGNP
Test: ESI-MSMS assay of α-L-iduronidase enzymatic activity in dried blood spots (IdA-P formed as a function of IdA-S concentration)
Type: biochemical
Conditions: IdA in DBS extract; 37° C., 20 h; IdA-S 0 to 0.67 mmol/L; fit to Michaelis-Menten equation (FIG. 7)
Experimental: A representative method of the invention for assaying α-L-iduronidase enzymatic activity by tandem mass spectrometry is described in Example 3. […] The amount of IdA-P increases linearly with incubation time from 0 to 30 h (FIG. 6); 20 h was chosen as the standard incubation time for the assay described in Example 3. The amount of IdA-P formed at 20 h increased in a hyperbolic fashion as the concentration of IdA-S increased from 0 to 0.67 mmol/L, and Km was determined to be 0.2 mmol/L (FIG. 7). An IdA-S concentration of 0.5 mmol/L was chosen in order to be under saturation conditions. The amount of IdA-P increases with the surface area of added DBS (FIG. 8), with a plateau reached at higher blood amounts (presumably due to the presence of endogenous inhibitors in the DBS). In one embodiment, the method uses a 3-mm-DBS punch.
A single 3-mm diameter DBS (containing ˜3.6 μL of blood) was obtained with a leather punch and was placed in a 1-mL Eppendorf tube. Extraction buffer [160 μL of 0.1 mol/L sodium formate pH 3.4 containing 75 μmol/L D-saccharic acid 1,4-lactone (Sigma); storage at −20° C.] was added to the tube. […]
Extraction of IdA-P and IdA-IS from the enzymatic reaction and blank was performed by addition of 250 μL of ethyl acetate. […] The sample was analyzed within the first 45 seconds of infusion, and after 1 min, the MSMS signal has returned to the background level. […]

## CC(C)(C)OC(=O)NCCCCNC(=O)Cc1cc(=O)oc2cc(O[C@@H]3O[C@@H](C(=O)O)[C@@H](O)[C@H](O)[C@H]3O)ccc12 [IdA-S, (N-[4″-(tert-butoxycarbonylamino)-butyl]) 7-O-(α-L-idopyranosyluronic acid)coumarin-4-acetamide]
  Km: 200 µM
